Experimental data reported in patent US7786043B2, “2-(pyridin-2-yl)-pyrimidines and their use for controlling harmful fungi” (BASF Aktiengesellschaft, priority 2004, dated 2010).

Tests used:
Format in all cases: in vivo
Botrytis cinerea = experiment: Use Example 2: activity against gray mold on bell pepper leaves caused by Botrytis cinerea, protective application; settings: 250 ppm, rated after 5 days, untreated plants 90% infected
Method: (§1) For the use examples 1 to 5 the active compounds were prepared separately as a stock solution with 0.25% by weight of active compound in acetone or DMSO. 1% by weight of the emulsifier Wettol® EM 31 (wetting agent having emulsifying and dispersing action based on ethoxylated alkylphenols) was added to this solution, and the solution was diluted with water to the desired concentration.
Bell pepper leaves of the cultiva “Neusiedler Ideal Elite” were, after 2 to 3 leaves had become well developed, sprayed to runoff point with an aqueous suspension having the concentration of active compounds stated below. The next day, the treated plants were inoculated with an aqueous spore suspension of Botrytis cinerea in a 2% aqueous biomalt solution having a density of 1.7×10^6 spores/ml. The plants were then placed in a climatized chamber at temperatures between 22 and 24° C. and at high atmospheric humidity. After 5 days, the extent of the fungal infection was determined visually by the infected leaf area.

Alternaria solani = experiment: Use Example 1: activity against early blight caused by Alternaria solani (tomato plants); settings: 250 ppm, tomato plants sprayed one day before infection, rated after 5 days; untreated plants 90% infected
Puccinia recondita = experiment: Use Example 5: curative activity against brown rust of wheat caused by Puccinia recondita; settings: 250 ppm, wheat seedlings, curative (sprayed one day after inoculation), 7 days; untreated plants 90% infected
Method: as §1
Leaves of potted wheat seedlings of the cultivar “Kanzler” were inoculated with a spore suspension of brown rust (Puccinia recondita). The pots were then placed in a chamber at high atmospheric humidity (90 to 95%) and 20 to 22° C. for 24 hours. During this time, the spores germinated and the germ tubes penetrated into the leaf tissue. The next day, the infected plants were sprayed to runoff point with an aqueous suspension having the active compound concentration stated below. The suspension or emulsion had been prepared as described above. After the spray coating had dried, the test plants were cultivated in a greenhouse at temperatures between 20 and 22° C. and at 65 to 70% relative atmospheric humidity for 7 days. The extent of the rust fungus development on the leaves was then determined.

Plasmopara viticola = experiment: Use Example 4: activity against peronospora of grapevines caused by Plasmopara viticola; settings: 63 ppm, potted grapevines, protective; untreated plants 90% infected
Method: as §1
Leaves of potted grapevines were sprayed to runoff point with an aqueous suspension having the concentration of active compounds stated below. The next day, the undersides of the leaves were inoculated with an aqueous sporangia suspension of Plasmopara viticola. The plants were then initially placed in a water-vapor-saturated chamber for 48 h and then in a greenhouse at temperatures between 20 and 30° C. After this period of time, the plants were, to promote sporangial eruption, again placed in the water-vapor-saturated chamber for 16 h. The extent of the development of the infection on the undersides of the leaves was then determined.

[1] = test system: Erysiphe [syn. Blumeria] graminis forma specialis. tritici; experiment: Use Example 3: activity against mildew of wheat caused by Erysiphe [syn. Blumeria] graminis forma specialis tritici; settings: 250 ppm, wheat seedlings, protective, rated after 7 days; untreated plants 90% infected
Method: as §1
Leaves of potted wheat seedlings of the cultiva “Kanzler” were sprayed to runoff point with an aqueous suspension having the concentration of active compounds stated below. 24 h after the spray coating had dried on, the leaves were dusted with the spores of mildew of wheat (Erysiphe [syn. Blumeria] graminis form a specialis. tritici). The plants were then placed in a greenhouse at temperatures between 20 and 24° C. and at 60-90% relative atmospheric humidity. After 7 days, the extent of the fungal infection was determined visually by the infected leaf area.

With `c1ccc(-c2cccc(-c3ncc4c(n3)CCCCCC4)n2)cc1` [Example 11] the “infection (infected leaf area)” value (Botrytis cinerea) was “no infection” and the infection (Alternaria solani) was “no infection”.

With `Cc1ccc(-c2ncc3c(n2)CCCCC3)nc1-c1ccc(F)cc1` [Example 9] the infection (Alternaria solani) was “no infection” and the “infection (rust fungus development)” value (Puccinia recondita) was 20%.

`Cc1ccc(-c2ncc3c(n2)CCCCC3)nc1-c1ccccc1` [Example 1, 2-(5-methyl-6-phenylpyridin-2-yl)-6,7,8,9-tetrahydro-5H-cycloheptapyrimidine] was tested, and the infection (Alternaria solani) was “no infection”.

In the case of `Cc1ccc(-c2ncc3c(n2)CCCCC3)nc1-c1ccccc1` [Example 6], the “infection (infected leaf area)” value (Botrytis cinerea) is reported as “no infection”.

For `Fc1ccc(-c2cccc(-c3ncc4c(n3)CCCCC4)n2)cc1` [Example 7], the “infection (infected leaf area)” value (Botrytis cinerea) was “no infection”, the infection (Plasmopara viticola) was “no infection” and the infection (Alternaria solani) was “no infection”. For the same molecule, the “infection (infected leaf area)” value [1] was 20%.

For `Cc1ccc(-c2ncc3c(n2)CCCC3)nc1-c1ccc(F)cc1` [2-(5-methyl-6-(4-fluorophenyl)pyridin-2-yl)-5,6,7,8-tetrahydroquinazoline, reference compound], the infection (Plasmopara viticola) was 70%, the infection (Alternaria solani) was 80% and the “infection (rust fungus development)” value (Puccinia recondita) was 50%. The “infection (infected leaf area)” value [1] was 80%.
